Source: patent US20030194450A1, “Method of producing a preparation containing active substances from cannabis” (priority 2002, published 2003)
Several values for one entry are separate records, joined by “and”; a condition that tells them apart may be missing. Identical values can stand only once.

Assay: Δ-9-tetrahydrocannabinol content in milk of a dairy cow fed hemp blossoms
Type: in vivo
Details: dairy cow fed 14 kg/day feed in two rations, 50 g ensiled hemp blossoms per ration; milk samples one week after initiation of feeding plan
Text: A dairy cow with a medium milk production was fed over a time period of two weeks with a daily feed amount of 14 kg/day, divided up into two rations, 50 g of hemp blossoms having been added to each ration. The hemp blossoms used consisted of the upper part of pistillate hemp plants which were harvested in a way analogous to that employed for harvesting corn. The material was processed by a corn chaff cutter and underwent an ensilage step. The rest of the fodder was normal cattle feed (Total Mix Ratio, TMR) as is commonly provided in agriculture to cows for milk production. The content of Δ-9-tetrahydrocannabinol active substance in milk samples obtained one week after initiation of the feeding plan was determined to be 0.15 mg/l and 0.63 mg/l. The measurements were carried out in an accredited laboratory (Swiss testing STS 017, EN 45001, GMP).

For CCCCCc1cc(O)c2c(c1)OC(C)(C)[C@@H]1CCC(C)=C[C@@H]21 [Δ-9-tetrahydrocannabinol], the “content of Δ-9-tetrahydrocannabinol active substance in milk samples” value was 0.15 mg/L and 0.63 mg/L.
